These results are taken from ChEMBL document CHEMBL1123909, “New inhibitors of human renin that contain novel Leu-Val replacements” (J Med Chem, 1987).

Assay [1] addresses T1, Renin (Homo sapiens) (UniProt P00797).
T1 sequence (whole entry): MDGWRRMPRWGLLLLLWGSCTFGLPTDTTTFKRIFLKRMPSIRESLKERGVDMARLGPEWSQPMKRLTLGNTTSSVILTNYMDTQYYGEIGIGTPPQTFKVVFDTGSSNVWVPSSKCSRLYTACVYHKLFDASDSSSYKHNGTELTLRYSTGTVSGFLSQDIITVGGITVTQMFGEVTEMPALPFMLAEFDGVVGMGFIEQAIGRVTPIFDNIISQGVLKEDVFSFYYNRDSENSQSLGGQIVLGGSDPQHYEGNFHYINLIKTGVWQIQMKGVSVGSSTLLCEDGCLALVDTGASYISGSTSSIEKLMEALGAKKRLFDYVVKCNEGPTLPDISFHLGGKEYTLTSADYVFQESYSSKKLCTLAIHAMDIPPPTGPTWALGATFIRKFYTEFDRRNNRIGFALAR
The assay can be described thus: The compound was tested for inhibition of human renal renin at the concentration of 10e-7 M.

The target in assay [2] is T2, Renin (Homo sapiens, UniProt P00797).
T2 sequence (P00797 whole entry): T1 sequence (whole entry)
The assay can be described thus: Inhibition of human renal renin at the pH optimum 6.0.

Assay [3] deals with T1, Renin (Homo sapiens). Kind of assay: Inhibition of human renal renin at the concentration of 10e-5 M.
Assay [4] deals with T1, Renin (Homo sapiens). The assay can be described thus: The compound was tested for inhibition of human renal renin at the concentration of 10e-6 M.
In assay [5] the target is Pepsin A (Sus scrofa) (UniProt P00791). The assay can be described thus: Inhibition of porcine pepsin. Also noted: concentration or dose not given beside the values. The following applies: concentration not given here.
In assay [6] the target is T2, Renin. The assay can be described thus: The compound was tested for inhibition of human renal renin at the pH optimum 7.4.

Pepsin A (Sus scrofa), sequence (P00791 60-385 limits assumed): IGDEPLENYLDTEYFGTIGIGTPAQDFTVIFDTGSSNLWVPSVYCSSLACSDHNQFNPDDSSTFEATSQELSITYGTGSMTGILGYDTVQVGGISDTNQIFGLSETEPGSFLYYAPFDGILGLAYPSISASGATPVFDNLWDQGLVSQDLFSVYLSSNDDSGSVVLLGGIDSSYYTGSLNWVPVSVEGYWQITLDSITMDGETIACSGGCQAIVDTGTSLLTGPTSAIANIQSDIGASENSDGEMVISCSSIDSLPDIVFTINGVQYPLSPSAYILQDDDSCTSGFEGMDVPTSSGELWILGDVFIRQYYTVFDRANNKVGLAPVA

In general, inhibition refers to the drop in the measured response relative to a control, in per cent. Usually IC50 stands for the midpoint of a concentration-inhibition curve. With `CC(C)C[C@@H](NC(=O)[C@H](Cc1c[nH]cn1)NC(=O)[C@H](Cc1cccc2ccccc12)NC(=O)OC(C)(C)C)[C@H](O)CSC1CCCCC1`, the inhibition in assay [1] was found to be 85%. The compound also had an IC50 in assay [2] of 13 nM.

In assay [3], `CC(C)C[C@@H](NC(=O)[C@H](C)NC(=O)[C@H](Cc1ccccc1)NC(=O)OC(C)(C)C)[C@H](O)CNc1ccccc1` registered an inhibition of 30%.

As to `CC(C)C[C@H](NC(=O)[C@H](Cc1c[nH]cn1)NC(=O)[C@H](Cc1ccccc1)NC(=O)OC(C)(C)C)[C@@H](O)CSC1CCCCC1` (stereo in doubt; 56), half-maximal inhibition in assay [2] (IC50) was put at 520 nM.

On to `CC(C)C[C@@H](NC(=O)[C@H](C)NC(=O)[C@H](Cc1ccccc1)NC(=O)OC(C)(C)C)[C@H](O)CSC(C)(C)C`, for which, in assay [2], the IC50 amounted to 3000 nM. This compound also had an inhibition in assay [3] of 88%.

As to `CC(C)C[C@@H](NC(=O)[C@H](C)NC(=O)[C@H](Cc1ccccc1)NC(=O)OC(C)(C)C)[C@H](O)CS(=O)(=O)C1CCCCC1`, inhibition in assay [2] was half-maximal at 2000 nM (IC50). In addition, the inhibition in assay [3] turned out to be 76%.

In the case of `CC(C)C[C@@H](NC(=O)[C@H](Cc1c[nH]cn1)NC(=O)[C@H](Cc1ccccc1)NC(=O)OC(C)(C)C)[C@H](O)CSC(C)C`, the inhibition came out at 92% in assay [4] and 54% in assay [1]. The IC50 in assay [2] was found to be 81 nM.

Compound `CC(C)C[C@@H](NC(=O)[C@H](Cc1c[nH]cn1)NC(=O)[C@H](Cc1ccccc1)NC(=O)OC(C)(C)C)[C@H](O)CS(=O)(=O)C(C)C` registered an IC50 in assay [2] of 200 nM. In addition, the inhibition was determined as 99% in assay [3] and 3% in assay [5].

Compound `CC(C)C[C@@H](NC(=O)[C@H](C)NC(=O)[C@H](Cc1ccccc1)NC(=O)OC(C)(C)C)[C@H](O)CNC(C)C` registered an inhibition in assay [3] of 5%.

`CC(C)CSC[C@@H](O)[C@@H](CC(C)C)NC(=O)[C@H](C)NC(=O)[C@H](Cc1ccccc1)NC(=O)OC(C)(C)C` showed an IC50 in assay [2] of 1500 nM. This compound also gave an inhibition in assay [3] of 89%.

Turning to `CC(C)C[C@@H](NC(=O)[C@H](C)NC(=O)[C@H](Cc1ccccc1)NC(=O)OC(C)(C)C)[C@H](O)CSc1ccc2ccccc2c1`, the inhibition in assay [3] amounted to 23%.

In assay [6], `CC(C)CCS(=O)(=O)C[C@@H](O)[C@@H](CC(C)C)NC(=O)[C@H](Cc1c[nH]cn1)NC(=O)[C@H](Cc1ccccc1)NC(=O)OC(C)(C)C` came in with an IC50 of 500 nM. In addition, the inhibition in assay [3] came to 94%.

On to `CC(C)C[C@@H](NC(=O)[C@H](C)NC(=O)[C@H](Cc1ccccc1)NC(=O)OC(C)(C)C)[C@H](O)CSCCc1ccccc1`, for which the IC50 in assay [2] came to 4500 nM. In addition, the inhibition in assay [3] worked out at 73%.

Consider `CC(C)C[C@@H](NC(=O)[C@H](C)NC(=O)[C@H](Cc1ccccc1)NC(=O)OC(C)(C)C)[C@H](O)CSC1CCCCC1`, for which, in assay [2], the IC50 came to 800 nM. For the same compound, the inhibition was 94% in assay [3] and 100% in assay [5].

For `CC(C)C[C@@H](NC(=O)[C@H](C)NC(=O)[C@H](Cc1ccccc1)NC(=O)OC(C)(C)C)[C@H](O)CSc1cccc2ccccc12`, the inhibition in assay [3] is 7%.

For the compound `CC(C)CCC[C@@H](O)[C@@H](CC(C)C)NC(=O)[C@H](Cc1c[nH]cn1)NC(=O)[C@H](Cc1ccccc1)NC(=O)OC(C)(C)C`, the IC50 in assay [2] was found to be 600 nM. Besides, the inhibition in assay [3] amounted to 97%.

As to `CC(C)C[C@H](NC(=O)[C@H](C)NC(=O)[C@H](Cc1ccccc1)NC(=O)OC(C)(C)C)[C@@H](O)CSC(C)C`, the concentration for half-maximal inhibition (IC50) in assay [2] was 700 nM. Further, the inhibition in assay [3] was 90%; in assay [5], 73%.

With `CC(C)CC[C@@H](O)[C@@H](CC(C)C)NC(=O)[C@H](Cc1c[nH]cn1)NC(=O)[C@H](Cc1ccc2ccccc2c1)NC(=O)OC(C)(C)C`, the inhibition in assay [4] is 87%. The same compound displayed an IC50 in assay [2] of 600 nM.

Regarding `CC(C)C[C@@H](NC(=O)[C@H](C)NC(=O)[C@H](Cc1ccccc1)NC(=O)OC(C)(C)C)[C@H](O)COc1ccccc1`, the inhibition is 48% in assay [3] and 27% in assay [5].

In the case of `CC(C)CCC[C@@H](O)[C@@H](CC(C)C)NC(=O)[C@H](C)NC(=O)[C@H](Cc1ccccc1)NC(=O)OC(C)(C)C`, in assay [2], the midpoint of inhibition, the IC50, lay at 3500 nM. The inhibition in assay [3] stood at 71%.

On to `CC(C)COC[C@@H](O)[C@@H](CC(C)C)NC(=O)[C@H](Cc1c[nH]cn1)NC(=O)[C@H](Cc1ccccc1)NC(=O)OC(C)(C)C`, for which the IC50 in assay [2] was determined as 650 nM. Further, the inhibition in assay [3] amounted to 94%; in assay [5], 0%.

In assay [2], `CC(C)C[C@@H](NC(=O)[C@H](Cc1c[nH]cn1)NC(=O)[C@H](Cc1ccccc1)NC(=O)OC(C)(C)C)[C@H](O)COC(C)C` returned an IC50 of 1500 nM. Also, the inhibition worked out at 85% in assay [3] and 0% in assay [5].

`CC(C)C[C@@H](NC(=O)[C@H](C)NC(=O)[C@H](Cc1ccccc1)NC(=O)OC(C)(C)C)[C@H](O)CSc1ccc(C(C)(C)C)cc1`: the inhibition in assay [3] turned out to be 15%.

For the compound `CC(C)C[C@@H](NC(=O)[C@H](C)NC(=O)[C@H](Cc1ccccc1)NC(=O)OC(C)(C)C)[C@H](O)CSCCCc1ccccc1`, the IC50 in assay [2] is 1000 nM. The values for the inhibition in assay [3] and in assay [5] were 88% and 74%, respectively.

On to `CC(C)C[C@@H](NC(=O)[C@H](Cc1c[nH]cn1)NC(=O)[C@H](Cc1ccccc1)NC(=O)OC(C)(C)C)[C@H](O)CSc1ccccc1`, for which the IC50 in assay [2] stood at 960 nM. Besides, the inhibition in assay [3] came out at 96%; in assay [5], 0%.

Turning to `CC(C)CCSC[C@@H](O)[C@@H](CC(C)C)NC(=O)[C@H](C)NC(=O)[C@H](Cc1ccccc1)NC(=O)OC(C)(C)C`, half-maximal inhibition in assay [2] (IC50) required 1500 nM. Moreover, in assay [3], the inhibition was 93%.

In turn, `CC(C)C[C@@H](NC(=O)[C@H](C)NC(=O)[C@H](Cc1ccccc1)NC(=O)OC(C)(C)C)[C@H](O)CSC1CCCC1` returned an IC50 in assay [2] of 1000 nM. In addition, the inhibition in assay [3] amounted to 94%.

`CC(C)COC[C@@H](O)[C@@H](CC(C)C)NC(=O)[C@H](C)NC(=O)[C@H](Cc1ccccc1)NC(=O)OC(C)(C)C`: the IC50 in assay [2] worked out at 7000 nM. In addition, the inhibition in assay [3] is 59%; in assay [5], 68%.

With `CC(C)C[C@@H](NC(=O)[C@H](C)NC(=O)[C@H](Cc1ccccc1)NC(=O)OC(C)(C)C)[C@H](O)C[S+]([O-])c1ccccc1` (stereo not given in full), the inhibition in assay [3] worked out at 12%.

In assay [1], `CC(C)C[C@H](NC(=O)[C@H](Cc1c[nH]cn1)NC(=O)[C@H](Cc1ccccc1)NC(=O)OC(C)(C)C)[C@@H](O)CSC1CCCCC1` (stereo in doubt; 55) [listing 1 of 2 here] had an inhibition of 78%.

In assay [2], `CC(C)CC[C@H](O)[C@H](CC(C)C)NC(=O)[C@H](C)NC(=O)[C@H](Cc1ccccc1)NC(=O)OC(C)(C)C` registered an IC50 of 2000 nM. The compound further came in with an inhibition in assay [3] of 85%.

Compound `CC(C)C[C@@H](NC(=O)[C@H](C)NC(=O)[C@H](Cc1ccccc1)NC(=O)OC(C)(C)C)[C@H](O)C[S+]([O-])C1CCCCC1` (stereo not given in full) had an inhibition in assay [3] of 46%.

In assay [2], `CC(C)C[C@@H](NC(=O)[C@H](C)NC(=O)[C@H](Cc1ccccc1)NC(=O)OC(C)(C)C)[C@H](O)CSCc1ccccc1` registered an IC50 of 10000 nM. Moreover, the values for the inhibition in assay [3] and in assay [5] were 57% and 96%, respectively.

For `CC(C)C[C@@H](NC(=O)[C@H](Cc1ccc(O)cc1)NC(=O)[C@H](Cc1ccccc1)NC(=O)OC(C)(C)C)[C@H](O)CSc1ccccc1`, the inhibition stood at 21% in assay [3] and 11% in assay [5].

Regarding `CC(C)C[C@H](NC(=O)[C@H](Cc1c[nH]cn1)NC(=O)[C@H](Cc1ccccc1)NC(=O)OC(C)(C)C)[C@@H](O)CSC1CCCCC1` (stereo in doubt; 55) [listing 2 of 2 here], the IC50 in assay [2] was determined as 35 nM.

`CC(C)C[C@@H](NC(=O)[C@H](Cc1c[nH]cn1)NC(=O)[C@H](Cc1ccccc1)NC(=O)OC(C)(C)C)[C@H](O)CNC(C)C` had an inhibition in assay [3] of 35%.

For the compound `CC(C)C[C@@H](NC(=O)[C@H](Cc1ccccc1)NC(=O)[C@H](Cc1ccccc1)NC(=O)OC(C)(C)C)[C@H](O)CSc1ccccc1`, the results for the inhibition in assay [3] and in assay [5] were 48% and 11%, respectively.

`CC(C)C[C@@H](NC(=O)[C@H](Cc1c[nH]cn1)NC(=O)[C@H](Cc1ccccc1)NC(=O)OC(C)(C)C)[C@H](O)CS(=O)(=O)C1CCCCC1`: the inhibition stood at 92% in assay [4] and 51% in assay [1]. The compound also returned an IC50 in assay [2] of 90 nM.

In assay [3], `CC(C)C[C@@H](NC(=O)[C@H](C)NC(=O)[C@H](Cc1ccccc1)NC(=O)OC(C)(C)C)[C@H](O)CSc1ccc(Br)cc1` came in with an inhibition of 21%.

`CC(C)C[C@@H](NC(=O)[C@H](Cc1c[nH]cn1)NC(=O)[C@H](Cc1ccccc1)NC(=O)OC(C)(C)C)[C@H](O)CS(=O)(=O)CC(C)C` came in with an IC50 in assay [6] of 350 nM. In addition, in assay [3], the inhibition is 98%.

Regarding `CC(C)CC[C@@H](O)[C@@H](CC(C)C)NC(=O)[C@H](Cc1c[nH]cn1)NC(=O)[C@H](Cc1ccccc1)NC(=O)OC(C)(C)C`, it took 1500 nM to reach half-maximal inhibition in assay [2] (IC50). Also, in assay [3], the inhibition was found to be 89%.

For the compound `CC(C)C[C@@H](NC(=O)[C@H](C)NC(=O)[C@H](Cc1ccccc1)NC(=O)OC(C)(C)C)[C@H](O)CS(=O)(=O)c1ccccc1`, the inhibition in assay [3] turned out to be 25%.

The compound `CC(C)C[C@@H](NC(=O)[C@H](C)NC(=O)[C@H](Cc1ccccc1)NC(=O)OC(C)(C)C)[C@H](O)COC(C)C` registered a half-inhibitory concentration (IC50) in assay [2] of 7000 nM. In assay [3], the inhibition was found to be 54%.

On to `CC(C)C[C@@H](NC(=O)[C@H](C)NC(=O)[C@H](Cc1ccccc1)NC(=O)OC(C)(C)C)[C@H](O)CSc1ccccc1`, for which the IC50 in assay [2] turned out to be 8000 nM. The inhibition in assay [3] stood at 56%.

In assay [3], `CC(C)C[C@@H](NC(=O)[C@H](C)NC(=O)[C@H](Cc1ccccc1)NC(=O)OC(C)(C)C)[C@H](O)CSCc1cccc2ccccc12` returned an inhibition of 48%.
